Assay [1] deals with mosquitoes. As to the kind of experiment: General bioassay procedure with garlic oil, its components and fractions (mosquito species not given). It counts as in vivo. As for the experimental part: (§1) Candidate repellents and deterrents were bioassayed according to a modified protocol from the World Health Organization (1996). At least 1 hour prior to each bioassay, 75 host-seeking non blood-fed, nulliparous, 5- to 8-day-old female Aedes aegypti, Anopheles gambiae or Culex quinquefasciatus were placed into a wood-framed cage (26.5 cm on each side and 42.5 cm high) with a wooden floor, screened mesh sides and top, and a clear acrylic front fitted with a cotton stockinette sleeve (10 cm diameter). The test subject's arm was covered with an elbow-length polyethylene glove with an excised patch (16.6 cm long, 6 cm wide) to expose the ventral forearm of the test subject. Candidate deterrents were formulated in mineral (paraffin) oil and applied to the exposed forearm 5 min prior to inserting the arm into the cage. The inserted arm remained in the cage for 3 min every 30 min. Prior to each 3-min bioassay period, the hand of the untreated arm was inserted into the cage to ascertain that it received 10 bites within 30 sec as an indication of “biting pressure”.
(§2) The bioassay was terminated when the treated arm received ≧2 bites in one 3-min bioassay period or one bite in each of two consecutive bioassay periods. The time elapsed from experiment initiation to first bite was recorded as deterrent failure or complete protection time.
(§3) N,N-diethyl-m-toluamide formulated in ethanol at a corresponding dose served as a positive control, and mineral oil by itself served as a negative control. On each day, only one candidate compound was tested, ensuring that any residual material in the chamber had disappeared before the next bioassay.
Garlic oil (Allium sativum—Mexico; Clearwater Soap Works, Box 1775 RR1, Clearwater, BC V0E 1N0, Canada) was formulated in mineral oil and tested using the general bioassay procedure described in EXAMPLE 2 at a dose of 0.1 mg per cm^2 of arm surface. It expressed repellence and deterrence for ˜30 min.
Some of the 10 components in FIG. 1 were bioassayed singly (see general bioassay procedure) and in various combinations, all of which were as deterrent to mosquitoes as garlic oil.
To determine the most deterrent component(s) in garlic oil, it was fractionated by HPLC into four fractions, each containing one or more of the EAD-active components (compounds 1-10 in FIG. 1 and 11-14 in TABLE 2). Each fraction was then bioassayed and shown to be similarly effective in repelling and deterring mosquitoes.
(§4) Components with high molecular weight (>250 daltons) are advantageous in that they: 1) dissipate slowly from treated surfaces; 2) provide long-lasting protection against mosquitoes and 3) convey little, if any, offensive smell. The relative abundance of such components was enhanced by treating garlic oil under vacuum, thus stripping away lower-boiling components. In GC-EAD analyses of the high-boiling residue, four components elicited responses from mosquito antennae.

Assay [2] has as its system Aedes aegypti. As to the kind of experiment: Arm-in-cage repellent/deterrent bioassay on exposed human forearm (modified WHO protocol), Aedes aegypti. It counts as in vivo. As for the experimental part: as §1, §2, §3
To determine the repellence and deterrence of 8-allylsulfanyloctan-1-ol against Aedes aegypti, a 5%, 10% or 25% formulation of 8-allylsulfanyloctan-1-ol in mineral oil was applied in Experiments 1-3 at a dose of 1.5 mg (total composition) per cm^2 to the skin of the test person, and was bioassayed according to the protocol described under EXAMPLE 2. In Experiment 4, mineral oil by itself served as a negative control and was bioassayed at the same dose (1.5 mg per cm^2) as in Experiments 1-3. Each of Experiments 1-4 was replicated four times.
To compare the repellence and deterrence against Aedes aegypti caused by 8-allylsulfanyloctan-1-ol as a single active ingredient and by 8-allylsulfanyloctan-1-ol in combination with vanillin as a second active ingredient, we tested a 6.7% emulsion of vanillin (Experiment 14), a 6.7% emulsion of 8-allylsulfanyloctan-1-ol (Experiment 15), and a 13.4% emulsion of 8-allylsulfanyloctan-1-ol plus vanillin (1:1 ratio) (Experiment 16). 8-Allylsulfanyloctan-1-ol and vanillin were formulated in Emulsion No. 1 (see EXAMPLE 9). In each of Experiments […], test stimuli were applied at a dose of 1.5 mg per cm^2 to the skin of the test person, and were bioassayed according to the protocol described under EXAMPLE 2. In Experiment 17, Emulsion No. 1 served as a positive control and was tested at the same dose (1.5 mg per cm^2) as in Experiments 14-16.
To be able to compare the repellence and deterrence caused by N,N-diethyl-m-toluamide and by 8-allylsulfanyloctan-1-ol plus vanillin in Emulsion No. 1 (EXAMPLE 9), Experiment 26 tested a 6.7% formulation of N,N-diethyl-m-toluamide in ethanol (the best formulant for DEET) for protection from bites by Aedes egypti. In each replicate, a dose of 1.5 mg per […] was applied to the skin of the test person and bioassayed according to the protocol described under EXAMPLE 2.
To be able to further compare the deterrence caused by N,N-diethyl-m-toluamide with that caused by 8-allylsulfanyloctan-1-ol plus vanillin, Experiment 27 tested a 10.4% formulation of N,N-diethyl-m-toluamide in ethanol, and Experiment 28 tested 8-allylsulfanyloctan-1-ol (10.4%) plus vanillin (7.9%) in Emulsion No. 2 (EXAMPLE 10). […]

Assay [3] has as its system male or female Aedes aegypti antennae. Nature of the assay: Coupled gas chromatographic-electroantennographic detection (GC-EAD) of garlic oil extract. How it is done: FIG. 1 illustrates flame ionization detector (FID) and electroantennograhic detector (EAD: male or female Aedes aegypti antennae) responses to aliquots of the low boiling temperature portion of garlic oil extract. Chromatography: Hewlett Packard (HP) gas chromatograph equipped with a fused silica column (30 m×0.32 mm ID) coated with DB-5; injector and detector temperature: 250° C.; temperature program: 50° C.
Aliquots of garlic oil extracts were then subjected to coupled gas chromatographic-electroantennographic detection (GC-EAD) analysis. Fourteen components (10 shown in FIG. 1) elicited responses from female or male mosquito antennae. Some of these components were isolated by high-performance liquid chromatography (HPLC) for identification by nuclear magnetic resonance spectroscopy (NMR). Other components were identified (compounds 11-14 in TABLE 2) by coupled GC-mass spectrometry and by retention index calculations. […] Four of the 10 components in FIG. 1 were tentatively identified by comparing their mass spectra and retention indices with those reported in the literature (Block et al. 1998).
as §4

The mark [4] stands for this setting: Aedes aegypti, topical, Dosage 0.1 mg/cm^2, (C-T)/C x 100 at time of failure, read-out: Percent repellence.
Setting [5] is: Dosage 0.1 mg/cm^2, 0 = immediate failure.

Like-named read-outs stand apart in the source and are kept apart here.

On to `C=CCSSCC(C)SSCC=C` (stereo not drawn) [Compound 12, 6-methyl-4,5,8,9-tetrathiadodeca-1,11-diene], for which, in assay [1], the “repellent and deterrent effect in bioassays (in words)” value is “strong repellent and deterrent effect”. Moreover, in assay [2] (setting [4]), the pest or weed control at 0.1 mg/cm2 was 87%. In assay [2] (Aedes aegypti, topical, Dosage 0.5 mg/cm^2, (C-T)/C x 100 at time of failure, read-out: Percent repellence), the pest or weed control at 0.5 mg/cm2 is 97%. Besides, the values for the Failure time in assay [2] (setting [5]) and in assay [2] (Dosage 0.5 mg/cm^2) were 0 min and 102 min, respectively. The “electroantennographic (EAD) response of mosquito antennae” value in assay [3] is recorded as “Antennal stimulatory”.

For `C=CCSSCCCSSCC=C` [Compound 11, 4,5,9,10-tetrathiatrideca-1,12-diene], in assay [1], the “repellent and deterrent effect in bioassays (in words)” value was “strong repellent and deterrent effect”. The pest or weed control at 0.1 mg/cm2 is 85% in assay [2] (setting [4]) and 92% in assay [2] (Aedes aegypti, topical, Dosage >0.1 mg/cm^2 (so in the source), (C-T)/C x 100 at time of failure, read-out: Percent repellence). In addition, the Failure time is on record as 0 min in assay [2] (setting [5]) and 67.7 min in assay [2] (Dosage >0.1 mg/cm^2 (so in the source)). The “electroantennographic (EAD) response of mosquito antennae” value in assay [3] is “Antennal stimulatory”.

The values are drawn from patent US8889731B2, “Compounds, compositions and methods for repelling blood-feeding arthropods and deterring their landing and feeding” (Contech Enterprises Inc., priority 2007, dated 2014).
